Entries after “also recorded” stand apart in the source; their conditions may differ.
How the values were obtained:
[1] = system: morphine-dependent rat model (MD model) of hot flush; assay: morphine-dependent naloxone-induced flush (MD model) of hot flush, tail skin temperature; type: in vivo; settings: for effect of the combination with 5-HT2a receptor antagonist on abating naloxone-induced flush: MDL-100907 0.01 mg/kg sc + desipramine 1 mg/kg or venlafaxine 10 mg/kg sc; for effect on MDL-100907-induced pre-naloxone flush (words): given sc 40 min prior to naloxone, after MDL-100907 0.01 mg/kg (55 min prior), desipramine 1 mg/kg; for effect on MDL-100907-induced pre-naloxone flush (words) / abatement of 5-HT2a receptor antagonist-induced pre-naloxone flush: venlafaxine 10 mg/kg, 15 min pre-naloxone; for abatement of 5-HT2a receptor antagonist-induced pre-naloxone flush: given sc after MDL-100907 (0.01 mg/kg), desipramine 1.0 mg/kg, compared to MDL treated animals
[2] = desipramine 300-500 mg/day; fluoxetine 20 mg/day; cited from earlier work

Structure (SMILES): COc1cc(CC(C)N)c(OC)cc1I (centres unmarked) [DOI]
- effect of 5-HT2a receptor agonist on MDL-100907-induced flush ([1]; DOI 0.3 mg/kg sc, 15 min prior to MDL-100907 (0.01 and 0.1 mg/kg)): block; also recorded: abated; also recorded: abatement

Structure (SMILES): COc1cccc(C(O)C2CCN(CCc3ccc(F)cc3)CC2)c1OC (stereo not drawn) [MDL-100907, (+)-α-(2,3-dimethoxyphenyl)-1-[2-(4-fluorophenyl)ethyl]-4-piperidinemethanol]
- effect of the combination with 5-HT2a receptor antagonist on abating naloxone-induced flush ([1]; 15 min post-naloxone, listed as MDL-100902): enhances desipramine's effect on abating naloxone-induced flush; also recorded: enhances venlafaxine's effect on a naloxone-induced flush
- effect of 5-HT2a receptor antagonist on DOI alleviation of naloxone-induced flush ([1]; MDL-100907 (0.01 and 0.1 mg/kg sc) after DOI 0.3 mg/kg sc, maximal flush, 15 min post-naloxone): reverse the efficacy of the 5-HT2a agonist in abating the naloxone-induced flush; also recorded: reversed the DOI alleviation of the naloxone-induced flush
- effect on tail skin temperature (TST) prior to naloxone (5-HT2a antagonist-induced flush) ([1]; MDL-100907 alone, 0.01 mg/kg sc, 55 min prior to naloxone, 0.01 mg/kg): induced hot flush; also recorded: induced a significant increase in TST
- effect on naloxone-induced hot flush ([1]; MDL-100907 alone, 0.01 mg/kg sc, post-naloxone): enhanced the naloxone-induced hot flush

Structure (SMILES): CNCCCN1c2ccccc2CCc2ccccc21 [desipramine]
- side effects of high doses alone [2]: can induce vomiting, nausea, sweating and flushes
- effect of the combination with 5-HT2a receptor antagonist on abating naloxone-induced flush ([1]; 15 min post-naloxone): efficacy can be enhanced
- abatement of naloxone-induced flush on co-administration with 5-HT2a receptor antagonist ([1]; desipramine 1.0 mg/kg sc + MDL-100907 0.01 mg/kg sc, 15 min post-naloxone): 80%
- abatement of naloxone-induced hot flush ([1]; desipramine alone, approximate ED50 (1.0 mg/kg sc), ovariectomized morphine-dependent rats): 50%
- effect on MDL-100907-induced pre-naloxone flush (words) [1]: abates an MDL-100907-induced flush
- effect on MDL-100907-induced pre-naloxone flush (words) ([1]; listed as Desipramine): reversed
- abatement of 5-HT2a receptor antagonist-induced pre-naloxone flush [1]: 75%

Structure (SMILES): CNCCC(Oc1ccc(C(F)(F)F)cc1)c1ccccc1 (centres unmarked) [fluoxetine]
- side effects of high doses alone [2]: can induce vomiting, nausea, sweating and flushes

Structure (SMILES): COc1ccc(C(CN(C)C)C2(O)CCCCC2)cc1 (centres unmarked) [venlafaxine]
- effect of the combination with 5-HT2a receptor antagonist on abating naloxone-induced flush ([1]; 15 min post-naloxone): enhanced abatement of a naloxone-induced flush; also recorded: can enhance this effect
- effect on MDL-100907-induced pre-naloxone flush (words) [1]: abates an MDL-100907-induced flush
- effect on MDL-100907-induced pre-naloxone flush (words) ([1]; listed as Venlafaxine): reversed
- abatement of 5-HT2a receptor antagonist-induced pre-naloxone flush [1]: 60%
